Measured values reported in BindingDB's records for doi:10.1021/jm00145a012 (1985).

target: Dihydrofolate reductase (Bos taurus) (UniProt P00376); test: In vitro inhibitory concentration against beef liver dihydrofolate reductase
Sequence (P00376 whole entry, looked up): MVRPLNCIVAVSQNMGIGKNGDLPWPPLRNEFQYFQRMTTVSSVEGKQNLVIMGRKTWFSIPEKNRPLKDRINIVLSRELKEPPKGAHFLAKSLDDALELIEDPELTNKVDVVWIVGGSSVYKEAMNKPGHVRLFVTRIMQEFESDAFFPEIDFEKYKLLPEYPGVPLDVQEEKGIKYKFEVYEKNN

IC50 | Compound
49 µM | Nc1nc2ncc(CCc3ccc(C(=O)N[C@@H](CCC(=O)O)C(=O)O)cc3)cc2c(=O)[nH]1
0.071 µM | Nc1nc(N)c2c(n1)NCC(CCc1ccc(C(=O)NC(CCC(=O)O)C(=O)O)cc1)C2 (centres undefined) [2-{4-[2-(2,4-Diamino-5,6,7,8-tetrahydro-pyrido[2,3-d]pyrimidin-6-yl)-ethyl]-benzoylamino}-pentanedioic acid]
0.043 µM | Nc1nc(N)c2cc(CCc3ccc(C(=O)NC(CCC(=O)O)C(=O)O)cc3)cnc2n1 (centres undefined) [2-{4-[2-(2,4-Diamino-pyrido[2,3-d]pyrimidin-6-yl)-ethyl]-benzoylamino}-pentanedioic acid]
560 µM | Nc1nc2c(c(=O)[nH]1)CC(CCc1ccc(C(=O)NC(CCC(=O)O)C(=O)O)cc1)CN2 (centres undefined) [(DDATHF) 5,10-Dideazatetrahydrofolic acid2-{4-[2-(2-Amino-4-oxo-3,4,5,6,7,8-hexahydro-pyrido[2,3-d]pyrimidin-6-yl)-ethyl]-benzoylamino}-pentanedioic acid]
